pEC50: −log10 of the molar value.
Columns and labels:
Format in all cases: cell-based
PPAR delta = target: T1, PPAR delta (Homo sapiens, UniProt Q03181); assay: Transfection assay for PPAR receptors (GAL4-LBD luciferase reporter), PPAR delta; conditions: Table 1; HEK293 cells co-transfected with PPAR LBD-GAL4 and GAL4 (UAS) luciferase reporter, 18–24 hrs
T1 construct: expressed in transfected cells; host or cells: HEK293
T1 sequence (Q03181 211-439 limits assumed): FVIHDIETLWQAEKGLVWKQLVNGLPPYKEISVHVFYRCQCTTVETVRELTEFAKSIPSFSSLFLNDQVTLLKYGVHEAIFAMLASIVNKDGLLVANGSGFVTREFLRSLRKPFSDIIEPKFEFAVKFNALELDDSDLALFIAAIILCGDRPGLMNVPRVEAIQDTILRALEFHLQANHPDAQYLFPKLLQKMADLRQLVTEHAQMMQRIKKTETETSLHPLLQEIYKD
Protocol: (§1) Transfection Assay Method for PPAR Receptors
(§2) HEK293 cells were grown in DMEM/F12 medium supplemented with 10% FBS and glutamine (Invitrogen) and incubated in a 5% CO2 incubator at 37° C. The cells were co-transfected using DMRIE-C reagent (Invitrogen) in serum free medium (Opti-MEM, Invitrogen) with two mammalian expression plasmids, one containing the DNA sequence coding for the ligand binding domains of either PPARαg or d fused to the yeast GAL4 DNA binding domain and the other containing the promoter sequence of the yeast GAL4 (UAS) fused to the firefly luciferase cDNA reporter. The next day, the medium was changed to DMEM/F12 medium supplemented with 5% charcoal treated serum (Hyclone) and glutamine. After 6 hrs the cells were trypsinized and seeded at a density of 50,000 cells/well into 96 well plates and incubated overnight as above. The cells were then treated with -test compounds or vehicle and incubated for 18–24 hrs as above. Luciferase reporter activity was measured using the Steady-Glo Luciferase Assay Kit from Promega. DMRIE-C Reagent was purchased from GIBCO Cat. No.10459-014. […] Steady-Glo Luciferase Assay Kit was purchased from Promega (Part#E254B).

PPAR alpha = target: T2, PPAR alpha (Homo sapiens, UniProt Q07869); assay: Transfection assay for PPAR receptors (GAL4-LBD luciferase reporter), PPAR alpha; conditions: 18–24 hrs
T2 construct: expressed in transfected cells; host or cells: HEK293
T2 sequence (Q07869 239-466 limits assumed): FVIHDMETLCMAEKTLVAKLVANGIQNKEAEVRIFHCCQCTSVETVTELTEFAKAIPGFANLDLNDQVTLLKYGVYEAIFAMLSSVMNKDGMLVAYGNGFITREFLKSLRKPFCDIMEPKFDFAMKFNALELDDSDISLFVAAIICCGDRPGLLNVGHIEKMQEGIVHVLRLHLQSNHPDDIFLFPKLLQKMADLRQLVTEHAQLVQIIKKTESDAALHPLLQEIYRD
Protocol: as §1
HEK293 cells were grown in DMEM/F12 medium supplemented with 10% FBS and glutamine (Invitrogen) and incubated in a 5% CO2 incubator at 37° C. The cells were co-transfected using DMRIE-C reagent (Invitrogen) in serum free medium (Opti-MEM, Invitrogen) with two mammalian expression plasmids, one containing the DNA sequence coding for the ligand binding domains of either PPARαg or d fused to the yeast GAL4 DNA binding domain and the other containing the promoter sequence of the yeast GAL4 (UAS) fused to the firefly luciferase cDNA reporter. The next day, the medium was changed to DMEM/F12 medium supplemented with 5% charcoal treated serum (Hyclone) and glutamine. After 6 hrs the cells were trypsinized and seeded at a density of 50,000 cells/well into 96 well plates and incubated overnight as above. The cells were then treated with -test compounds or vehicle and incubated for 18–24 hrs as above. Luciferase reporter activity was measured using the Steady-Glo Luciferase Assay Kit from Promega. DMRIE-C Reagent was purchased from GIBCO Cat. No.10459-014. OPTI-MEM I Reduced Serum Medium was purchased from GIBCO (Cat. No. 31985). Steady-Glo Luciferase Assay Kit was purchased from Promega (Part#E254B).
A variety of example compounds have been made and tested, with a range of in vitro results. Below are representative compounds and data; in some cases, where multiple EC50's are shown, multiple measurements were taken. Naturally, different compounds in Formula (I) may have not have activities identical to any one compound below.

PPAR gamma = target: T3, PPAR gamma (Homo sapiens, UniProt P37231); assay: Transfection assay for PPAR receptors (GAL4-LBD luciferase reporter), PPAR gamma; conditions: 18–24 hrs
T3 construct: expressed in transfected cells; host or cells: HEK293
T3 sequence (P37231 238-503 limits assumed): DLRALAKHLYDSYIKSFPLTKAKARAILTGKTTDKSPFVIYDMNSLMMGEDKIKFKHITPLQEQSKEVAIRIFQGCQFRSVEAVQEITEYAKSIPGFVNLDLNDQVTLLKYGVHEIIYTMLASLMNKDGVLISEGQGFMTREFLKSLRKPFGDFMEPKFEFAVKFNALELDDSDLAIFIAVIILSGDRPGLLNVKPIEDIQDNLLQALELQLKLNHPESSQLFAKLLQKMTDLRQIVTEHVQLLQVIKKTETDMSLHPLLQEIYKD
Protocol: as §1, §2

[1] = Table 1, HEK293 cells co-transfected with PPAR LBD-GAL4 and GAL4 (UAS) luciferase reporter
[2] = Table 2, compounds of interest, HEK293 cells, PPAR LBD-GAL4 luciferase reporter

Compound	pEC50 (PPAR delta)	pEC50 (PPAR alpha; [1])	pEC50 (PPAR gamma; [1])	pEC50 (PPAR alpha; [2])	pEC50 (PPAR gamma; [2])
Cc1cc(SCc2nc(-c3ccc(C(F)(F)F)cc3)ns2)ccc1OCC(=O)O [Compound 1, {2-Methyl-4-[3-(4-trifluoromethyl-phenyl)-[1,2,4]thiadiazol-5-ylmethylsulfanyl]-phenoxy}-acetic acid]	8.00	6.33			
CC(C)(Oc1ccc(SCc2nc(-c3ccc(C(F)(F)F)cc3)ns2)cc1)C(=O)O [Compound 2, 2-Methyl-2-{4-[3-(4-trifluoromethyl-phenyl)-[1,2,4]thiadiazol-5-ylmethylsulfanyl]-phenoxy}-propionic acid]	7.70	6.81			
Cc1cc(SCc2nc(-c3ccc(C(F)(F)F)cc3)ns2)ccc1OC(C)(C)C(=O)O [Compound 3, 2-Methyl-2-{2-methyl-4-[3-(4-trifluoromethyl-phenyl)-[1,2,4]thiadiazol-5-ylmethylsulfanyl]-phenoxy}-propionic acid]	8.12	7.06			
Cc1cc(SCc2nc(-c3ccc(OC(F)(F)F)cc3)ns2)ccc1OC(C)(C)C(=O)O [Compound 4, 2-Methyl-2-{2-methyl-4-[3-(4-trifluoromethoxy-phenyl)-[1,2,4]thiadiazol-5-ylmethylsulfanyl]-phenoxy}-propionic acid]		7.48	4.93		
Cc1ccc(-c2nsc(CSc3ccc(OC(C)(C)C(=O)O)c(C)c3)n2)cc1 [Compound 5, 2-Methyl-2-[2-methyl-4-(3-p-tolyl-[1,2,4]thiadiazol-5-ylmethylsulfanyl)-phenoxy]-propionic acid]	7.33	6.65	< 5.52		
Cc1cc(SCc2nc(-c3ccc(C(C)(C)C)cc3)ns2)ccc1OC(C)(C)C(=O)O [Compound 6, 2-{4-[3-(4-tert-Butyl-phenyl)-[1,2,4]thiadiazol-5-ylmethylsulfanyl]-2-methyl-phenoxy}-2-methyl-propionic acid]	7.03	7.19	< 5.52		
Cc1cc(SCc2nc(-c3ccc(Cl)cc3)ns2)ccc1OC(C)(C)C(=O)O [Compound 7, 2-{4-[3-(4-Chloro-phenyl)-[1,2,4]thiadiazol-5-ylmethylsulfanyl]-2-methyl-phenoxy}-2-methyl-propionic acid]	7.74	6.73	< 5.52		
Cc1cc(SCc2nc(-c3ccc(OC(F)(F)F)c(Cl)c3)ns2)ccc1OC(C)(C)C(=O)O [Compound 8, 2-{4-[3-(3-Chloro-4-trifluoromethoxy-phenyl)-[1,2,4]thiadiazol-5-ylmethylsulfanyl]-2-methyl-phenoxy}-2-methyl-propionic acid]	8.55	7.55	< 5.52		
Cc1cc(SCc2nc(-c3ccc(Cl)c(Cl)c3)ns2)ccc1OC(C)(C)C(=O)O [Compound 9, 2-{4-[3-(3,4-Dichloro-phenyl)-[1,2,4]thiadiazol-5-ylmethylsulfanyl]-2-methyl-phenoxy}-2-methyl-propionic acid]	7.89	6.98	< 5.52		
Cc1cc(SCc2nc(-c3ccc(Cl)cc3Cl)ns2)ccc1OC(C)(C)C(=O)O [Compound 10, 2-{4-[3-(2,4-Dichloro-phenyl)-[1,2,4]thiadiazol-5-ylmethylsulfanyl]-2-methyl-phenoxy}-2-methyl-propionic acid]	6.99	6.32	< 5.52		
Cc1ccc(-c2nsc(CSc3ccc(OC(C)(C)C(=O)O)c(C)c3)n2)cc1C [Compound 11, 2-{4-[3-(3,4-Dimethyl-phenyl)-[1,2,4]thiadiazol-5-ylmethylsultanyl]-2-methyl-phenoxy}-2-methyl-propionic acid]	7.03	6.94			
Cc1ccc(-c2nsc(CSc3ccc(OC(C)(C)C(=O)O)c(C)c3)n2)cc1Cl [Compound 12, 2-{4-[3-(3-Chloro-4-methyl-phenyl)-[1,2,4]thiadiazol-5-ylmethylsulfanyl]-2-methyl-phenoxy}-2-methyl-propionic acid]	7.57	7.17	6.17		
Cc1cc(SCc2nc(-c3ccc(C(F)(F)F)c(F)c3)ns2)ccc1OC(C)(C)C(=O)O [Compound 13, 2-{4-[3-(3-Fluoro-4-trifluoromethyl-phenyl)-[1,2,4]thiadiazol-5-ylmethylsulfanyl]-2-methyl-phenoxy}-2-methyl-propionic acid]	8.28	7.47	6.19		
Cc1cc(SCc2nc(-c3ccc(OC(F)(F)F)cc3)ns2)ccc1OC1(C(=O)O)CCCC1 [Compound 14, 1-{2-Methyl-4-[3-(4-trifluoromethoxy-phenyl)-[1,2,4]thiadiazol-5-ylmethylsulfanyl]-phenoxy}-cyclopentanecarboxylic acid]	< 6.00	6.13	< 5.52		
Cc1cc(SCc2nsc(-c3ccc(OC(F)(F)F)cc3)n2)ccc1OC(C)(C)C(=O)O [Compound 17, 2-Methyl-2-{2-methyl-4-[5-(4-trifluoromethoxy-phenyl)-[1,2,4]thiadiazol-3-ylmethylsulfanyl]-phenoxy}-propionic acid]	7.24	6.18			
Cc1cc(OCc2nc(-c3ccc(C(F)(F)F)cc3)ns2)ccc1OC(C)(C)C(=O)O [Compound 23, 2-Methyl-2-{2-methyl-4-[3-(4-trifluoromethyl-phenyl)-[1,2,4]thiadiazol-5-ylmethoxy]-phenoxy}-propionic acid]		7.03	< 5.52		
Cc1cc(SCCc2nc(-c3ccc(C(F)(F)F)cc3)ns2)ccc1OC(C)(C)C(=O)O [Compound 28, 2-Methyl-2-(2-methyl-4-{2-[3-(4-trifluoromethyl-phenyl)-[1,2,4]thiadiazol-5-yl]-ethylsulfanyl}-phenoxy)-propionic acid]		7.43	6.33		
Cc1cc(SCc2cc(-c3ccc(C(F)(F)F)cc3)sn2)ccc1OCC(=O)O [Compound b, {2-Methyl-4-[5-(4-trifluoromethyl-phenyl)-isothiazol-3-ylmethylsulfanyl]-phenoxy}-acetic acid]				< 5.52	< 5.52
Cc1cc(SCc2cc(-c3ccc(C(F)(F)F)cc3)ns2)ccc1OCC(=O)O [Compound c, {2-Methyl-4-[3-(4-trifluoromethyl-phenyl)-isothiazol-5-ylmethylsulfanyl]-phenoxy}-acetic acid]				< 6.00	< 5.52
Cc1cc(SCc2cc(-c3ccc(C(F)(F)F)cc3)no2)ccc1OCC(=O)O [Compound f, {2-Methyl-4-[3-(4-trifluoromethyl-phenyl)-isoxazol-5-ylmethylsulfanyl]-phenoxy}-acetic acid]				< 5.52	< 5.52
Cc1cc(SCc2cc(-c3ccc(C(F)(F)F)cc3)on2)ccc1OCC(=O)O [Compound g, {2-Methyl-4-[5-(4-trifluoromethyl-phenyl)-isoxazol-3-ylmethylsulfanyl]-phenoxy}-acetic acid]				5.66	< 5.52
{2-Methyl-4-[5-(4-trifluoromethyl-phenyl)-pyridin-3-ylmethylsulfanyl]-phenoxy}-acetic acid [Compound e]				< 5.52	
